Experimental data published in paper PMC8550792, “Evolution of kinase polypharmacology across HSP90 drug discovery” (Cell Chemical Biology, 2021).
Read-outs that look alike come from different tables or passages of the source.

Tests used:
Assay in all cases: biochemical
Format in all cases: biochemical
382 unique human kinases [1] = biological target: T1, 382 unique human kinases (Homo sapiens, UniProt P49759); details: CLK1, 10 uM; for remaining activity at 10 µM: read-out: % Enzyme Activity (relative to DMSO controls)
T1 construct: purchased Reaction Biology (HotSpot contract assay)
T1 sequence (P49759 whole entry): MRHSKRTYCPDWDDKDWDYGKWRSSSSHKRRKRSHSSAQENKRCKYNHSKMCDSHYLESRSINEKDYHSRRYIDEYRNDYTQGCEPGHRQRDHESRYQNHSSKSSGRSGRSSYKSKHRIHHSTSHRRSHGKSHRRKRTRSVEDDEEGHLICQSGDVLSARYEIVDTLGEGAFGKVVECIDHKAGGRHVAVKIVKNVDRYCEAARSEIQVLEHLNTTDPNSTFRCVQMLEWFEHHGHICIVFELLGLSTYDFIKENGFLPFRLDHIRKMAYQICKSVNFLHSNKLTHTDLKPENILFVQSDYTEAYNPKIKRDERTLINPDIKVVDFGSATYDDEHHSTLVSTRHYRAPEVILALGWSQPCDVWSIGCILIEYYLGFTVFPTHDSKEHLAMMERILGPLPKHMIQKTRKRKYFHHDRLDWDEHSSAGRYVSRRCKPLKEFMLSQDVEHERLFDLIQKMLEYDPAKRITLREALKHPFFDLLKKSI

382 unique human kinases [2] = biological target: T2, 382 unique human kinases (Homo sapiens, UniProt P35968); details: kinase KDR/VEGFR2, compound 10 uM; for remaining activity at 10 µM: read-out: % Enzyme Activity (relative to DMSO controls)
T2 construct: purchased Reaction Biology (HotSpot contract assay)
T2 sequence (P35968 20-1356): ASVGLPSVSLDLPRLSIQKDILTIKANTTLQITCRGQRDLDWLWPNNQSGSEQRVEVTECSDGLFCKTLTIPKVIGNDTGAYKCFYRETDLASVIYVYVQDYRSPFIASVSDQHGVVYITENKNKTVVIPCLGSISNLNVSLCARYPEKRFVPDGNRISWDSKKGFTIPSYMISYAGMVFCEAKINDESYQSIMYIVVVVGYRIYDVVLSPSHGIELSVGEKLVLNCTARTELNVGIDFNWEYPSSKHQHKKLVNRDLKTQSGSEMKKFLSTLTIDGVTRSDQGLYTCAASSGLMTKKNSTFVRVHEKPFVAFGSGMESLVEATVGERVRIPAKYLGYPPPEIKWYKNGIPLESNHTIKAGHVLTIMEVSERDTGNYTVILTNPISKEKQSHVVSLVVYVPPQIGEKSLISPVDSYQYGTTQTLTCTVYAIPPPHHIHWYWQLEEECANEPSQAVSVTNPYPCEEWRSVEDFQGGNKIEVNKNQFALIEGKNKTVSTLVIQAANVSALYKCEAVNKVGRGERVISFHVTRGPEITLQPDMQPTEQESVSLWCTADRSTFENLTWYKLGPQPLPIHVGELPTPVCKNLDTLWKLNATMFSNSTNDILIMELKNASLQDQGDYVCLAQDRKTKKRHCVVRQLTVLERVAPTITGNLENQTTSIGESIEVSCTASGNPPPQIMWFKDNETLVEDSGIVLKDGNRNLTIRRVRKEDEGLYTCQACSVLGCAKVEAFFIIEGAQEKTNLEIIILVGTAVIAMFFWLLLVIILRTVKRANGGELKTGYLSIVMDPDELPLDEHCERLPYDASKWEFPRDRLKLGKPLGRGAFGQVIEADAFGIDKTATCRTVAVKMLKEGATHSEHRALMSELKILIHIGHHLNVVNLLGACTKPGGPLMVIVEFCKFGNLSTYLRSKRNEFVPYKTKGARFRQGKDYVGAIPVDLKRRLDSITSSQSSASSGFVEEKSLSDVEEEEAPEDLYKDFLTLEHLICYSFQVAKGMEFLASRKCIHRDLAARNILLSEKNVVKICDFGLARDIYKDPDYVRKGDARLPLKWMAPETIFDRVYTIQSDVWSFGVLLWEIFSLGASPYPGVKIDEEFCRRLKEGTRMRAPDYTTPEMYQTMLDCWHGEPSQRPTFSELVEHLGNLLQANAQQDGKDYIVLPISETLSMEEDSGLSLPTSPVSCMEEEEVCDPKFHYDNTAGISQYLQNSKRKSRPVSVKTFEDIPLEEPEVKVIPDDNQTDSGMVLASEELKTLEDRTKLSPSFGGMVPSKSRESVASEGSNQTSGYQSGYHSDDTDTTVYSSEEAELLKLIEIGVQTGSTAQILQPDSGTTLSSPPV

382 unique human kinases [3] = biological target: T3, 382 unique human kinases (Homo sapiens, UniProt Q12852); details: kinase DLK/MAP3K12, compound 10 uM; for remaining activity at 10 µM: read-out: % Enzyme Activity (relative to DMSO controls)
T3 sequence (Q12852 1-859): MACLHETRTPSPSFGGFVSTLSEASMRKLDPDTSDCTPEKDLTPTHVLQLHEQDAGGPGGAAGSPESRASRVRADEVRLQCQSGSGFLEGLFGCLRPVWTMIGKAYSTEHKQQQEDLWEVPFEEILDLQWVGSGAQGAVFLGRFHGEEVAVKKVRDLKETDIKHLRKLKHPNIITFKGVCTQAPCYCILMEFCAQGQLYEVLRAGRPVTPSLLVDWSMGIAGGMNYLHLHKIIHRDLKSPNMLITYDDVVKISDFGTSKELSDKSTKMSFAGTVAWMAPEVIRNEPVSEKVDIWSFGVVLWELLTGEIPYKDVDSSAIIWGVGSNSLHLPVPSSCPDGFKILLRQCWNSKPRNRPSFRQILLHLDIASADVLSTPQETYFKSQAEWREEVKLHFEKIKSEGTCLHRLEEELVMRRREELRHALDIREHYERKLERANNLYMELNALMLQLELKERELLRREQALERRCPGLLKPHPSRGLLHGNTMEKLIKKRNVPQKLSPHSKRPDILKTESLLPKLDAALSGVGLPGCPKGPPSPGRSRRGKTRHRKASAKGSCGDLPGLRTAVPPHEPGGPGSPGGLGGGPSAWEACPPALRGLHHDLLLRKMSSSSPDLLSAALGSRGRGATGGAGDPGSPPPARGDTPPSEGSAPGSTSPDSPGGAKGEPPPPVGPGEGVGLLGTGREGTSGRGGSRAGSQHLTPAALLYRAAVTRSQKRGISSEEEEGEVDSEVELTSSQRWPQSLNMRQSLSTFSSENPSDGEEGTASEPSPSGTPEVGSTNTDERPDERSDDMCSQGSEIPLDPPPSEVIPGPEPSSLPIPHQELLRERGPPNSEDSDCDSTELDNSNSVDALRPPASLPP

382 unique human kinases [4] = biological target: T4, 382 unique human kinases (Homo sapiens, UniProt Q9UPZ9); details: kinase LCK2/ICK, compound 10 uM; for remaining activity at 10 µM: read-out: % Enzyme Activity (relative to DMSO controls)
T4 construct: purchased Reaction Biology (HotSpot contract assay)
T4 sequence (Q9UPZ9 1-632): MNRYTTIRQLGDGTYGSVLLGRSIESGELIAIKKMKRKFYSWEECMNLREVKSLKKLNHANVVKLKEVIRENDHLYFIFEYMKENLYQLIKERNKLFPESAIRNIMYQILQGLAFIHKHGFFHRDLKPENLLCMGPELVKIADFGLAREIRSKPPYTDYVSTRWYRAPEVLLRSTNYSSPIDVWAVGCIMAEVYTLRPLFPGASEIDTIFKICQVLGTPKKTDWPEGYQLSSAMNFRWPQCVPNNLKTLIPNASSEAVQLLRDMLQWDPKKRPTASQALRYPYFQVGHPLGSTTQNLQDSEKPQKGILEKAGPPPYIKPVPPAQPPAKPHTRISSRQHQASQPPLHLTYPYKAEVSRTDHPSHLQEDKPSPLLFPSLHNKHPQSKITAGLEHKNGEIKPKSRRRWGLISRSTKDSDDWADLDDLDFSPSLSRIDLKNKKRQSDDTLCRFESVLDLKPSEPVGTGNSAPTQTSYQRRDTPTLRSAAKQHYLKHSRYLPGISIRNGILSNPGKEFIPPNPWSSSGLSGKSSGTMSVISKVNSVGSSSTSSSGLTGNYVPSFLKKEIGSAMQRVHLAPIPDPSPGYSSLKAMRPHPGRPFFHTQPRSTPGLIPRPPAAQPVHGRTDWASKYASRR

382 unique human kinases [5] = biological target: T5, 382 unique human kinases (Homo sapiens, UniProt Q13131); details: for remaining activity at 10 µM: read-out: % Enzyme Activity (relative to DMSO controls)
T5 construct: purchased Reaction Biology (HotSpot contract assay)
T5 sequence (Q13131 whole entry): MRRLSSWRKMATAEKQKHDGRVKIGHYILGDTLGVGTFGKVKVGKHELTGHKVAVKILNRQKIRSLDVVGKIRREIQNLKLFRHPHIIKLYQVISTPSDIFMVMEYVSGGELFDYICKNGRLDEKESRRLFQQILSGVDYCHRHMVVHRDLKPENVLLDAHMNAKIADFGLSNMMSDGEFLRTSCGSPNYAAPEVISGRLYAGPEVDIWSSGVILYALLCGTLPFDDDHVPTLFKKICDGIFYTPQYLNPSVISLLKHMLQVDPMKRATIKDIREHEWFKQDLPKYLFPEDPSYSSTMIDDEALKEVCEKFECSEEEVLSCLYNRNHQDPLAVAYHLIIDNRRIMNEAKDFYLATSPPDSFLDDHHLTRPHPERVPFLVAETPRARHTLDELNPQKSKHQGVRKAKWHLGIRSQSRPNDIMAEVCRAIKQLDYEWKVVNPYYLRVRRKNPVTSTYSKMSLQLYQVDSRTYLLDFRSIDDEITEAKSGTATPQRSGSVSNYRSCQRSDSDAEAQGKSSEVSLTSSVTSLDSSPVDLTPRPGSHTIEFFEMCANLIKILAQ

382 unique human kinases [6] = biological target: T6, 382 unique human kinases (Homo sapiens, UniProt P00533, G719D); details: EGFR (G719D), 10 uM; for remaining activity at 10 µM: read-out: % Enzyme Activity (relative to DMSO controls)
T6 construct: purchased Reaction Biology (HotSpot contract assay)

382 unique human kinases [7] = biological target: T7, 382 unique human kinases (Homo sapiens, UniProt Q9H2K8); details: TAOK3/JIK, 10 uM; for remaining activity at 10 µM: read-out: % Enzyme Activity (relative to DMSO controls)
T7 construct: purchased Reaction Biology (HotSpot contract assay)
T7 sequence (Q9H2K8 1-898): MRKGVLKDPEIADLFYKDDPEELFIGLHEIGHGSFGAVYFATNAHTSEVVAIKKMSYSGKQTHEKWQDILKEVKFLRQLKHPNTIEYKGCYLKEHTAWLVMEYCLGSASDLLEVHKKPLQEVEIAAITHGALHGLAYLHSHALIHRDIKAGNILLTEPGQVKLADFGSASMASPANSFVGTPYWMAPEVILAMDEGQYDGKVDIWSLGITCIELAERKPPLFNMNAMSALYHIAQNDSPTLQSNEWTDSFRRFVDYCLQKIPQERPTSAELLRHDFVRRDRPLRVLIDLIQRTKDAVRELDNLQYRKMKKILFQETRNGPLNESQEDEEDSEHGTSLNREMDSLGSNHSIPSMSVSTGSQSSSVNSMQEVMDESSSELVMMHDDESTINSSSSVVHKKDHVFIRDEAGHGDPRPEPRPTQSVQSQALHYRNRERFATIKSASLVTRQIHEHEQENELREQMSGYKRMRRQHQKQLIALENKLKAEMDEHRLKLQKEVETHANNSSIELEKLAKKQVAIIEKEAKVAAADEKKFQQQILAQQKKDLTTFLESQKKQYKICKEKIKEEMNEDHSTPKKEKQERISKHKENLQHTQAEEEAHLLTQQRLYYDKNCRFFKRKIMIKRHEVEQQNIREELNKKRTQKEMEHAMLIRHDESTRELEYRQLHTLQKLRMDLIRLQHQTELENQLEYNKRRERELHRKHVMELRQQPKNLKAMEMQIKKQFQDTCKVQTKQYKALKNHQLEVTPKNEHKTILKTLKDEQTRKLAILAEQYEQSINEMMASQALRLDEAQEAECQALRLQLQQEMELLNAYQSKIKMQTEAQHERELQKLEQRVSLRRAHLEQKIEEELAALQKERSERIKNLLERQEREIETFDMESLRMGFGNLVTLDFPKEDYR

382 unique human kinases [8] = biological target: T8, 382 unique human kinases (Homo sapiens, UniProt P29597); details: TYK2, [ATP] 15 µM, compound 10 uM; for remaining activity at 10 µM: read-out: % Enzyme Activity (relative to DMSO controls)
T8 construct: purchased Reaction Biology (HotSpot contract assay)
T8 sequence (P29597 whole entry): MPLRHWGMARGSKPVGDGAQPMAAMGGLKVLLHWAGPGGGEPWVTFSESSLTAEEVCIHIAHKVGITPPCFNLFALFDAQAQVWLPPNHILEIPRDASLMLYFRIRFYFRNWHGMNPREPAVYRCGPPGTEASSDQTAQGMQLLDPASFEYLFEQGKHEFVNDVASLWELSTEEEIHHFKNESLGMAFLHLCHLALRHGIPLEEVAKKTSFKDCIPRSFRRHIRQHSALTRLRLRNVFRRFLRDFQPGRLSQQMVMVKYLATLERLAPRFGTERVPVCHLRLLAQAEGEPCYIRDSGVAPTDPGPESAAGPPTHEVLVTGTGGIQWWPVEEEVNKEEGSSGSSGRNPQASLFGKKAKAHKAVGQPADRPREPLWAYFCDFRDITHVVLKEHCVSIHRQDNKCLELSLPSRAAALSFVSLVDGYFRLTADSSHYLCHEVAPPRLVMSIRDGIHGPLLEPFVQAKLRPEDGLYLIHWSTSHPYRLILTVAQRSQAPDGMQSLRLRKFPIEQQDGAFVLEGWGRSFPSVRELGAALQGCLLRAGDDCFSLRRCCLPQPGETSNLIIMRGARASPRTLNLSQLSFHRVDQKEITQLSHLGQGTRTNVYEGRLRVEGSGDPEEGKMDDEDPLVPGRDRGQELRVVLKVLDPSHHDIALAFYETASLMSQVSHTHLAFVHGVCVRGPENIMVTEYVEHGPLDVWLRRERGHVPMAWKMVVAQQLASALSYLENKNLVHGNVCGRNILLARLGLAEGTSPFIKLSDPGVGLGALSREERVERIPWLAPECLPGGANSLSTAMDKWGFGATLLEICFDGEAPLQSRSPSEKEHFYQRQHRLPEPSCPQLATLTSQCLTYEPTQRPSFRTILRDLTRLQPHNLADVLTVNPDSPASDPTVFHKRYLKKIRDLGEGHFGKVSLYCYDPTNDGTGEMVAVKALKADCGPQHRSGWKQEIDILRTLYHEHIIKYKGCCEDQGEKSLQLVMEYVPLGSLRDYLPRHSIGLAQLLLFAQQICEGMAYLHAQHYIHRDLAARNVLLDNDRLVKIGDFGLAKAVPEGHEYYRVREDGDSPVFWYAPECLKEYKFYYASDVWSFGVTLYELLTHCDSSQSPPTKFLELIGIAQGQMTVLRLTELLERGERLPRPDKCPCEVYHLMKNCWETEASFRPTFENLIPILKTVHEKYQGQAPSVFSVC

[9] = kinase AMPK(A1/B1/G3), compound 10 uM

Row | Compound | remaining activity at 10 µM (382 unique human kinases [1]) [%] | remaining activity at 10 µM (382 unique human kinases [2]) [%] | remaining activity at 10 µM (382 unique human kinases [3]) [%] | remaining activity at 10 µM (382 unique human kinases [4]) [%] | remaining activity at 10 µM (382 unique human kinases [5]; AMPK(A1/B1/G1), 10 uM) [%] | remaining activity at 10 µM (382 unique human kinases [5]; AMPK(A1/B1/G2), 10 uM) [%] | remaining activity at 10 µM (382 unique human kinases [5]; AMPK(A1/B2/G1), 10 uM) [%] | remaining activity at 10 µM (382 unique human kinases [5]; [9]) [%] | remaining activity at 10 µM (382 unique human kinases [6]) [%] | remaining activity at 10 µM (382 unique human kinases [7]) [%] | remaining activity at 10 µM (382 unique human kinases [8]) [%] | also measured
1 | CC(C)c1cc(-c2n[nH]c(=O)n2-c2ccc3c(ccn3C)c2)c(O)cc1O [Ganetespib (STA9090)] | 69.1 | 88.7 | 84.7 | 90.4 | 79.7 | 73.2 | 70.8 | 86.1 |  |  |  | 
2 | CC(C)c1cc(-c2n[nH]c(=O)n2-c2ccc3c(ccn3C)c2)c(O)cc1O [Ganetespib] |  |  |  |  |  |  |  |  | 104 | 126 | 62.6 | 
3 | CCNC(=O)c1noc(-c2cc(C(C)C)c(O)cc2O)c1-c1ccc(CN2CCOCC2)cc1 [Luminespib (AUY-922)] | 95.8 | 101 | 122 | 113 | 101 | 107 | 97.6 | 119 |  |  |  | % Enzyme Activity (relative to DMSO controls) (382 unique human kinases [1]): 95.73%; % Enzyme Activity (relative to DMSO controls) (382 unique human kinases [2]): 99.89%; % Enzyme Activity (relative to DMSO controls) (382 unique human kinases [3]): 120.31%; % Enzyme Activity (relative to DMSO controls) (382 unique human kinases [4]): 109.49%; % Enzyme Activity (relative to DMSO controls) (382 unique human kinases [5]; AMPK(A1/B1/G1), 10 uM): 99.40%; % Enzyme Activity (relative to DMSO controls) (382 unique human kinases [5]; AMPK(A1/B1/G2), 10 uM): 104.49%; % Enzyme Activity (relative to DMSO controls) (382 unique human kinases [5]; AMPK(A1/B2/G1), 10 uM): 96.58%; % Enzyme Activity (relative to DMSO controls) (382 unique human kinases [5]; [9]): 118.21%
4 | CCNC(=O)c1noc(-c2cc(C(C)C)c(O)cc2O)c1-c1ccc(CN2CCOCC2)cc1 [Luminespib] |  |  |  |  |  |  |  |  | 99 | 100 | 102 | % Enzyme Activity (relative to DMSO controls) (382 unique human kinases [6]): 97.19%; % Enzyme Activity (relative to DMSO controls) (382 unique human kinases [7]): 98.33%; % Enzyme Activity (relative to DMSO controls) (382 unique human kinases [8]): 101.11%
